Source: patent publication US8771764B2, “Composition and method for improving vascular health” (Malaysian Palm Oil Board, priority 2009, dated 2014)

Experiments:
Sprague-Dawley rats = assay: Blood pressure study in L-NAME (nitric oxide deficient) model of hypertension, dietary OPP; assay type: in vivo, rat
Source text: In order to determine the effect of OPP in blood pressure reduction, a method utilizing a nitric oxide (NO) deficient model of hypertension was used. This animal model involves the inhibition of endogenous NO production with L-NAME (N^G-nitro-L-arginine methyl ester) that leads to elevation in BP.
12 weeks old Sprague-Dawley rats were fed a standard laboratory rat diet, formulated to contain low n-3 polyunsaturated fatty acids (Glen Forrest Stock feeders, Glen Forrest, W.A., Australia). The OPP was provided as a drink at a rate of 30 ml/rat/day. OPP were provided at two different strengths—as liquid (1500 GAE) and in a concentrated liquid form at 3000 GAE (prepared using the freeze-dried preparation at 30,000 GAE). Rats were pre-treated for four weeks prior to challenge with L-NAME. […]
BP was monitored fortnightly by standard photoelectric tail-cuff procedure (IITC, Life Sciences, Woodlands Hills, Calif., USA) as described in detail previously. […] The pulse was detected as the cuff pressure was reduced and the pressure at which the first pulse detected was taken as the systolic blood pressure and computed automatically (IITC software package). The ambient temperature was carefully controlled (30° C.) and the average of 3-4 readings was taken as the final reading.

human LDL = assay: Copper-mediated LDL oxidation, conjugated diene formation; assay type: biochemical; conditions: for Lag time (mins), conjugated diene formation: control LDL 67 ± 12, means ± SD
Procedure: Blood from six healthy normocholesterolemic adult volunteers was collected into vacutainer tubes containing EDTA and centrifuged (1000×g for 15 min) to isolate plasma. LDL was isolated by density gradient centrifugation in a Beckman Ultracentrifuge using a 50.2 Ti rotor, based on the method of Sundram et al. (2). The LDL layer following sequential isolation at density 1.063 kg/L was removed and dialyzed against 4 L of PBS, pH 7.4 and purged with nitrogen for 12-18 h. After dialysis, the cholesterol concentration in the pooled LDL sample was determined using an automated Cholesterol assay. The LDL fraction was used immediately or immediately stored under nitrogen at 4° C. and analyzed for LDL oxidation within 48 h.
To evaluate the ability of OPP to inhibit copper (Cu) mediated LDL oxidation, conjugated dienes (CD) were continually monitored at 5-min intervals at 37° C. by UV absorption at 234 nm. LDL oxidation was initiated by addition of copper sulfate at a final concentration of 6 μmol/L to 90 μg of LDL cholesterol in a final volume of 1 mL. The purified test compounds (catechin obtained from Sigma Chemical) and OPP extracts were added immediately before the addition of the oxidant. The extracts were added at a final concentration range of 0.25-1.0 μmol/L GAB and the purified compounds at a final concentration of 0.25 or 0.5 μmol/L. All LDL oxidations were performed in triplicate. The lag time in the presence or absence of the test compounds was determined as the intercept of the slopes for the lag and propagation phases. This was compared with the control oxidized LDL to determine the percentage of LDL oxidation inhibition.

COC(=O)[C@@H](N)CCCNC(=N)N[N+](=O)[O-] [L-NAME, N^G-nitro-L-arginine methyl ester]
initial rise in BP on introduction of L-NAME (Sprague-Dawley rats; L-NAME 10 mg/Kg, OPP pre-treatment 4 weeks): 18 mmHg | final BP values (Sprague-Dawley rats; conclusion of experiment, L-NAME 10 then 15 mg/Kg, OPP drink 30 ml/rat/day, tail-cuff systolic BP, n=12): 176±2.5 mmHg

catechin
Lag time (mins), conjugated diene formation (human LDL; 0.25 μmol/L): 87 ± 13 min | LDL lag phase lengthened / increase in lag time relative to control LDL (human LDL; 0.5 μmol/L): 55% | Lag time (mins), conjugated diene formation (human LDL; 0.5 μmol/L): 104 ± 10 min
